Source: the supplement of paper PMC10307832

Experiments:
Assay in all cases: relative viability (nuclei count vs DMSO), 5 days (fraction); higher = more cells survive
[1] = compound: N#CC[C@H](C1CCCC1)n1cc(-c2ncnc3[nH]ccc23)cn1 [Ruxolitinib] + CC(C)C[C@H](NC(=O)[C@H](Cc1ccccc1)NC(=O)c1cnccn1)B(O)O [Bortezomib] (partner 0.002 µM)
Method in brief: (§1)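 The day after seeding in 1536-well plates, lung cancer cell lines were treated by pin tool with a single drug, or with a fixed anchor-drug dose together with five library-drug doses (not always all listed) in √10 steps. After 5 days, a combined fix-and-stain solution (final 0.05% Triton X-100, 1% formaldehyde, 1 ug/ml Hoechst) was added. Nuclei counted on 4× images gave relative viability as treated counts over vehicle counts, reported as the median of duplicate plates.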

[2] = compound: CS(=O)(=O)c1ccc(C(=O)Nc2ccc(Cl)c(-c3ccccn3)c2)c(Cl)c1 [Vismodegib] + Cc1nc(Nc2ncc(C(=O)Nc3c(C)cccc3Cl)s2)cc(N2CCN(CCO)CC2)n1 [Dasatinib] (partner 0.075 µM)
Method in brief: as §1

[3] = compound: CS(=O)(=O)c1ccc(-c2cnc(N)c(C(=O)Nc3ccccc3)n2)cc1 [VE-821] + C[C@@H](Oc1cc(-c2cnn(C3CCNCC3)c2)cnc1N)c1c(Cl)ccc(F)c1Cl [Crizotinib] (partner 1 µM)
Method in brief: as §1

[4] = compound: CS(=O)(=O)c1ccc(-c2cnc(N)c(C(=O)Nc3ccccc3)n2)cc1 [VE-821] + N=C(N)NC(=N)NCCc1ccccc1 [Phenformin] (partner 250 µM)
Method in brief: as §1

Row | Cell Line | relative viability ([1]; first compound 0.08 µM) | relative viability ([1]; first compound 0.253 µM) | relative viability ([1]; first compound 0.8 µM) | relative viability ([1]; first compound 2.53 µM) | relative viability ([1]; first compound 8 µM) | relative viability ([2]; first compound 0.08 µM) | relative viability ([2]; first compound 0.253 µM) | relative viability ([2]; first compound 0.8 µM) | relative viability ([2]; first compound 2.53 µM) | relative viability ([2]; first compound 8 µM) | relative viability ([3]; first compound 0.08 µM) | relative viability ([3]; first compound 0.253 µM) | relative viability ([3]; first compound 0.8 µM) | relative viability ([3]; first compound 2.53 µM) | relative viability ([3]; first compound 8 µM) | relative viability ([4]; first compound 0.08 µM) | relative viability ([4]; first compound 0.253 µM) | relative viability ([4]; first compound 0.8 µM) | relative viability ([4]; first compound 2.53 µM) | relative viability ([4]; first compound 8 µM)
1 | LU99A | 1.27 | 1.05 | 1.21 | 1.15 | 0.842 | 0.401 | 0.507 | 0.546 | 0.509 | 0.708 | 0.628 | 0.564 | 0.532 | 0.476 | 0.325 | 0.947 | 0.896 | 0.807 | 0.873 | 0.478
2 | LXF-289 | 1 | 0.963 | 0.991 | 0.933 | 0.897 | 0.237 | 0.214 | 0.202 | 0.286 | 0.26 | 0.919 | 0.812 | 0.9 | 0.933 | 0.912 | 0.541 | 0.53 | 0.532 | 0.527 | 0.562
3 | NCI-H23 | 1.12 | 1.02 | 1.34 | 0.89 | 0.731 | 0.81 | 0.825 | 0.73 | 0.838 | 0.754 | 0.788 | 0.495 | 0.501 | 0.508 | 0.272 | 0.812 | 0.743 | 0.785 | 0.844 | 0.479
4 | NCI-H322M | 1.18 | 1.31 | 1.26 | 1.52 | 1.64 | 0.244 | 0.25 | 0.243 | 0.245 | 0.255 | 1.03 | – | 0.858 | 0.881 | 0.502 | 0.504 | 0.766 | 0.741 | 0.577 | 0.364
5 | NCI-H441 | 0.545 | 0.448 | 0.557 | 0.456 | 0.397 | 0.671 | 0.444 | 0.502 | 0.558 | 0.433 | 1.21 | 0.791 | 0.866 | 0.927 | 0.723 | 1.02 | 0.988 | 1.02 | 1.02 | 0.842
6 | NCI-H460 | 1.06 | 1.11 | 1.29 | 1.01 | 0.86 | 0.575 | 0.507 | 0.533 | 0.482 | 0.533 | 1.5 | 0.818 | 0.588 | 0.359 | 0.186 | 0.574 | 0.482 | 0.398 | 0.205 | 0.0832
7 | NCI-H520 | – | 0.323 | 0.859 | 0.323 | 0.364 | 0.191 | 0.202 | 0.188 | 0.166 | 0.203 | 0.967 | 0.826 | – | 0.867 | 0.503 | 0.575 | 0.613 | 0.375 | 0.818 | 0.381
8 | NCI-H596 | 0.964 | 1.17 | 1.21 | – | 0.994 | 0.568 | 0.566 | 0.585 | 0.625 | 0.556 | 0.977 | 1.03 | 0.904 | 1.12 | 0.934 | 0.78 | 0.635 | 0.735 | 0.871 | 0.631
9 | NCI-H647 | 0.867 | 0.942 | 1.23 | 0.783 | 0.885 | 0.222 | 0.202 | 0.177 | 0.18 | 0.194 | 1.11 | 1.05 | 1.02 | 0.935 | 0.42 | 0.556 | 0.532 | 0.454 | 0.533 | 0.211
10 | NCI-H650 | – | 0.777 | 0.812 | 0.888 | 0.478 | 0.507 | 0.43 | 0.358 | 0.438 | 0.441 | 0.969 | 0.969 | 0.675 | 0.889 | 0.642 | 0.448 | 0.429 | 0.45 | 0.494 | 0.468
11 | NCI-H661 | 0.66 | 0.858 | 0.998 | 0.792 | 0.908 | 0.807 | 0.815 | 0.897 | 0.892 | 0.856 | 1.08 | 0.942 | 1.05 | 0.997 | 1.06 | 0.282 | 0.255 | 0.272 | 0.286 | 0.311
12 | NCI-H727 | 0.997 | 0.845 | 1.14 | 0.941 | 1.07 | 0.307 | 0.345 | 0.342 | 0.308 | 0.364 | 0.866 | 0.804 | 0.898 | 0.739 | 0.394 | 0.503 | 0.552 | 0.547 | 0.537 | 0.385
13 | NCI-H838 | 0.875 | 0.652 | 0.887 | 0.398 | 0.342 | 0.213 | 0.275 | 0.303 | 0.285 | 0.319 | 0.96 | 0.721 | 0.688 | 0.875 | 0.757 | 0.605 | 0.454 | 0.528 | 0.599 | 0.385
14 | NCI-H1355 | 1.25 | 1.13 | 1.14 | 1.11 | 1.22 | 0.686 | 0.723 | 0.591 | 0.771 | 0.689 | 1.22 | 1.11 | 0.993 | 1.04 | 0.768 | 0.469 | 0.442 | 0.459 | 0.526 | 0.369
15 | NCI-H1437 | 0.634 | 0.519 | 0.586 | 0.413 | 0.464 | 0.313 | 0.372 | 0.402 | 0.328 | 0.377 | 1.1 | 0.906 | 0.864 | 1.01 | 0.823 | 0.318 | 0.319 | 0.329 | 0.306 | 0.274
16 | NCI-H1563 | 0.992 | 0.867 | 0.97 | 0.833 | 0.788 | 0.455 | 0.443 | 0.477 | 0.495 | 0.454 | 1.02 | 0.781 | 0.751 | 0.694 | 0.695 | 0.653 | 0.676 | 0.613 | 0.688 | 0.596
17 | NCI-H1650 | – | 0.185 | 0.188 | 0.18 | 0.195 | 0.276 | 0.347 | 0.339 | 0.258 | 0.291 | 1.03 | 1.08 | 0.896 | 0.873 | 0.478 | 0.496 | 0.422 | 0.363 | 0.3 | 0.21
